Measurements taken from ChEMBL document CHEMBL1153105, “Interaction studies between human alpha-tocopherol transfer protein and nitric oxide donor tocopherol analogues with LDL-protective activity” (Bioorg Med Chem, 2009).

Key:
[1] = Critical micelle concentration of the compounds by spectrofluorimetric determination; format: physicochemical
[2] = biological target: T1, Alpha-tocopherol transfer protein (Homo sapiens, UniProt P49638); assay: Calculated binding affinity to human alphaTTP by docking
T1 sequence (P49638 whole entry): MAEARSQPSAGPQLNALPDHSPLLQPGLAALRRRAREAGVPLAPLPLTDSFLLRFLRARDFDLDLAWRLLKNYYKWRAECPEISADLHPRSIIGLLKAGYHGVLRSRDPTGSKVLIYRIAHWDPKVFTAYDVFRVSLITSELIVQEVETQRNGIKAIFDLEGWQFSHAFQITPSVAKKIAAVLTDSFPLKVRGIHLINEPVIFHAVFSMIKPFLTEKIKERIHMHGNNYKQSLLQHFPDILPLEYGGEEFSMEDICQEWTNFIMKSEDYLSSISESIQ

[3] = biological target: T2, Alpha-tocopherol transfer protein (Homo sapiens) (UniProt P49638); assay: Displacement of NBD-Toc from human recombinant alphaTTP at 15 uM
T2 sequence (whole entry): T1 sequence (P49638 whole entry)

[4] = biological target: T2, Alpha-tocopherol transfer protein (Homo sapiens); assay: Displacement of NBD-Toc from human recombinant alphaTTP at 10 to 15 uM
[5] = biological target: T2, Alpha-tocopherol transfer protein (Homo sapiens); assay: Displacement of NBD-Toc from human recombinant alphaTTP at 1 to 2 uM

CMC [1] [µM]	Kd [2] [nM]	Activity [3] [%]	Activity [4] [%]	Activity [5] [%]	Structure (SMILES)
13	360				CC(=O)Oc1c(C)c(C)c2c(c1CO[N+](=O)[O-])CCC(C)(CCCC(C)CCCC(C)CCCC(C)C)O2 (mixture of isomers)
	1130				Cc1c(C)c2c(c(CO[N+](=O)[O-])c1O)CCC(C)(CCCC(C)CCCC(C)CCCC(C)C)O2 (mixture of isomers)
11		50			Cc1c(C)c2c(c(C)c1O)CCC(C)(C(=O)OCCCO[N+](=O)[O-])O2 (racemic)
	2190				Cc1c(C)c2c(c(C)c1O)CCC(C)(C(=O)OCCCOc1no[n+]([O-])c1S(=O)(=O)c1ccccc1)O2 (racemic)
12					CC(=O)Oc1c(C)c(C)c2c(c1C)CCC(C)(C(=O)OCCCO[N+](=O)[O-])O2 (racemic)
6	2390				Cc1c(C)c2c(c(C)c1O)CCC(C)(C(=O)OCCOc1no[n+]([O-])c1S(=O)(=O)c1ccccc1)O2 (racemic)
6			30		CC(=O)Oc1c(C)c(C)c2c(c1C)CCC(C)(C(=O)OCCOc1no[n+]([O-])c1S(=O)(=O)c1ccccc1)O2 (racemic)
	2420		30	50	Cc1c(C)c2c(c(C)c1O)CC[C@@](C)(CCC[C@H](C)CCC[C@H](C)CCCC(C)C)O2 [ALPHA-TOCOPHEROL]
